Assay results: US12662674B2, “RNA nanoparticle for liver cancer treatment” (OHIO STATE INNOVATION FOUNDATION, priority 2019, dated 2026)

Test system: HepG2 cells
Experiment: HSA synergy modeling of cell viability
Settings: HSA model, Combenefit; FIG. 17C: 6WJ/HTL/miR122 and 6WJ/HTL/PTX nanoparticles
Excerpt: To study the synergy between miR122 and PTX in cytotoxicity induction, an MTT cell viability assay was first performed. […] Cell viability was used as an indicator to quantify the correlation of synergy between miR122 and PTX using Highest Single Agent (HSA) synergy modeling. The data was processed and quantified using Combenefit software to obtain the HSA synergy score between miR122 and PTX (FIG. 17C). […] The number represented the co-efficiency of synergy.
Cell viability was studied following MTT protocol in cytotoxicity assay. The result was presented by Prism 8.0 (Graph Pad). The viability result was entered into HSA synergy modeling by Combenefit and plotted by Prism 8.0.

CC(=O)O[C@H]1C(=O)[C@@]2(C)[C@H]([C@H](OC(=O)c3ccccc3)[C@]3(O)C[C@H](OC(=O)[C@H](O)[C@@H](NC(=O)c4ccccc4)c4ccccc4)C(C)=C1C3(C)C)[C@]1(OC(C)=O)CO[C@@H]1C[C@@H]2O [PTX, Paclitaxel]
concentration of highest synergy in cytotoxic induction: 3.2 µM
